Here are results for 16 compounds from patent US20230036854A1, “HETEROCYCLIC SPIRO-COMPOUNDS AS AM2 RECEPTOR INHIBITORS” (THE UNIVERSITY OF SHEFFIELD, priority 2018, published 2023).

The target of the assay is T1, AM2 receptor (1321N1 cells transfected with CALCRL+RAMP3) (Homo sapiens, UniProt O60896+Q16602).
T1 construct: host or cells: 1321N1 cells
T1 sequence (Q16602 23-461): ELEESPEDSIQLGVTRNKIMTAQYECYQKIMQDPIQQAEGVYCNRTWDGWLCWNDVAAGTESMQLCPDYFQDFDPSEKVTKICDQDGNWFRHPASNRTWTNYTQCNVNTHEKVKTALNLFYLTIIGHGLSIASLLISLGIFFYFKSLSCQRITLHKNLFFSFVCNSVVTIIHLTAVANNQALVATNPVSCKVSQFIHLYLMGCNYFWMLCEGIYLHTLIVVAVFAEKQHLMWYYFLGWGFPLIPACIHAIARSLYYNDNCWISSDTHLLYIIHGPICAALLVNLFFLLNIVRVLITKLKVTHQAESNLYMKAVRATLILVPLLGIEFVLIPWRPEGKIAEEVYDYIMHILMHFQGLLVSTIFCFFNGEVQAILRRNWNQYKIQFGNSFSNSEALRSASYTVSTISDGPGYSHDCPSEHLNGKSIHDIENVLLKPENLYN
T1 sequence (O60896 24-148): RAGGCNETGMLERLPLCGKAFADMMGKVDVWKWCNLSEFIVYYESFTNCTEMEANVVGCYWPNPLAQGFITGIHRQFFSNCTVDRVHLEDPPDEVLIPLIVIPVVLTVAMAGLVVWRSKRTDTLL
Description: AM2 receptor inhibition, LANCE cAMP agonist-antagonist competition assay. The assay is classed as cell-based. The conditions noted are these: inhibition of AM induced cAMP activation, read-out: AM2 D2 protocol: pIC50 (converted). In a few lines:
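1321N1 cells co-expressing CALCRL and RAMP3 (2500/well) were preincubated with compound for 30 min at room temperature, then stimulated with adrenomedullin at its EC50 dose for 15 min in HBSS/HEPES/BSA buffer, pH 7.4. cAMP was measured by LANCE TR-FRET and normalised to forskolin (100%) and vehicle (0%) controls.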
(TR-FRET usually uses a lanthanide donor and a delayed reading to cut background.)
`CCC1(C(=O)N(CC(=O)Nc2ccc3c(c2)C[C@@]2(C3)C(=O)Nc3ncccc32)Cc2ccccc2CNC)CCN(S(=O)(=O)N(C)C)CC1` [Example 118, (R)-1-(N,N-Dimethylsulfamoyl)-4-ethyl-N-(2-((methylamino)methyl)benzyl)-N-(2-oxo-2-((2′-oxo-1,1′,2′,3-tetrahydrospiro[indene-2,3′-pyrrolo[2,3-b]pyridin]-5-yl)amino)ethyl)piperidine-4-carboxamide]: the IC50 was 34.7 nM.

As to `CNCc1ccccc1CN(CC(=O)Nc1ccc2c(c1)C[C@@]1(C2)C(=O)Nc2ncccc21)C(=O)C1(CC(F)(F)F)CCN(C(C)=O)CC1` [Example 120, (R)-1-Acetyl-N-(2-((methylamino)methyl)benzyl)-N-(2-oxo-2-((2′-oxo-1,1′,2′,3-tetrahydrospiro[indene-2,3′-pyrrolo[2,3-b]pyridin]-5-yl)amino)ethyl)-4-(2,2,2-trifluoroethyl)piperidine-4-carboxamide], the IC50 was 22.9 nM.

For the compound `CNCc1ccccc1CN(CC(=O)Nc1ccc2c(c1)C[C@@]1(C2)C(=O)Nc2ncccc21)C(=O)C1(CC(F)(F)F)CCN(C(=O)N(C)C)CC1` [Example 121, (R)—N1,N1-Dimethyl-N4-(2-((methylamino)methyl)benzyl)-N4-(2-oxo-2-((2′-oxo-1,1′,2′,3-tetrahydrospiro[indene-2,3′-pyrrolo[2,3-b]pyridin]-5-yl)amino)ethyl)-4-(2,2,2-trifluoroethyl)piperidine-1,4-dicarboxamide], the IC50 is 10.5 nM.

Regarding `CNCc1ccccc1CN(CC(=O)Nc1ccc2c(c1)C[C@@]1(C2)C(=O)Nc2ncccc21)C(=O)C1(CC2CC2)CCN(C(C)=O)CC1` [Example 122, (R)-1-Acetyl-4-(cyclopropylmethyl)-N-(2-((methylamino)methyl)benzyl)-N-(2-oxo-2-((2′-oxo-1,1′,2′,3-tetrahydrospiro[indene-2,3′-pyrrolo[2,3-b]pyridin]-5-yl)amino)ethyl)piperidine-4-carboxamide], the IC50 was 8.32 nM.

As to `CNCc1ccccc1CN(CC(=O)Nc1ccc2c(c1)C[C@@]1(C2)C(=O)Nc2ncccc21)C(=O)C1(C(C)C)CCN(C(C)=O)CC1` [Example 123, (R)-1-Acetyl-4-isopropyl-N-(2-((methylamino)methyl)benzyl)-N-(2-oxo-2-((2′-oxo-1,1′,2′,3-tetrahydrospiro[indene-2,3′-pyrrolo[2,3-b]pyridin]-5-yl)amino)ethyl)piperidine-4-carboxamide], the IC50 was 214 nM.

Regarding `CNCc1ccccc1CN(CC(=O)Nc1ccc2c(c1)C[C@@]1(C2)C(=O)Nc2ncccc21)C(=O)C1(CC(C)C)CCN(C(C)=O)CC1` [Example 125], the IC50 is 21.4 nM.

As to `CNCc1ccccc1CN(CC(=O)Nc1ccc2c(c1)C[C@@]1(C2)C(=O)Nc2ncccc21)C(=O)C1(COC)CCN(C(C)=O)CC1` [Example 126, (R)-1-Acetyl-4-(methoxymethyl)-N-(2-((methylamino)methyl)benzyl)-N-(2-oxo-2-((2′-oxo-1,1′,2′,3-tetrahydrospiro[indene-2,3′-pyrrolo[2,3-b]pyridin]-5-yl)amino)ethyl)piperidine-4-carboxamide], the IC50 is 174 nM.

As for `CNCc1ccccc1CN(CC(=O)Nc1ccc2c(c1)C[C@@]1(C2)C(=O)Nc2ncccc21)C(=O)C1(OC)CCN(C(C)=O)CC1` [Example 127, 1-Acetyl-4-methoxy-N-[[2-(methylaminomethyl)phenyl]methyl]-N-[2-oxo-2-[[(3R)-2-oxospiro[1H-pyrrolo[2,3-b]pyridine-3,2′-indane]-5′-yl]amino]ethyl]piperidine-4-carboxamide], the IC50 was 24.5 nM.

For the compound `CNCc1ccccc1CN(CC(=O)Nc1cc2c(cc1C)CC1(C2)C(=O)Nc2ncccc21)C(=O)C1(C)CCNCC1` (stereo not shown) [Example 128, 4-Methyl-N-(2-((5-methyl-2′-oxo-1,1′,2′,3-tetrahydrospiro[indene-2,3′-pyrrolo[2,3-b]pyridin]-6-yl)amino)-2-oxoethyl)-N-(2-((methylamino)methyl)benzyl)piperidine-4-carboxamide], the IC50 was 87.1 nM.

`CNCc1ccccc1CN(CC(=O)Nc1cc2c(cc1C)CC1(C2)C(=O)Nc2ncccc21)C(=O)C1(C)CCN(C(C)=O)CC1` (stereo not shown) [Example 129, Acetyl-4-methyl-N-(2-((5-methyl-2′-oxo-1,1′,2′,3-tetrahydrospiro[indene-2,3′-pyrrolo[2,3-b]pyridin]-6-yl)amino)-2-oxoethyl)-N-(2-((methylamino)methyl)benzyl)piperidine-4-carboxamide]: the IC50 was 107 nM.

Take `CC(=O)N1CCC(C)(C(=O)N(CC(=O)Nc2cc3c(cc2C)CC2(C3)C(=O)Nc3ncccc32)Cc2ccccc2CN)CC1` (stereo not shown) [Example 130, 1-Acetyl-N-(2-(aminomethyl)benzyl)-4-methyl-N-(2-((5-methyl-2′-oxo-1,1′,2′,3-tetrahydrospiro[indene-2,3′-pyrrolo[2,3-b]pyridin]-6-yl)amino)-2-oxoethyl)piperidine-4-carboxamide]: the IC50 was 69.2 nM.

For the compound `CC1(C(=O)N(CC(=O)Nc2ccc3c(c2)C[C@@]2(C3)C(=O)Nc3ncccc32)Cc2ccccc2CN)CCNCC1` [Example 131, (R)—N-(2-(Aminomethyl)benzyl)-4-methyl-N-(2-oxo-2-((2′-oxo-1,1′,2′,3-tetrahydrospiro[indene-2,3′-pyrrolo[2,3-b]pyridin]-5-yl)amino)ethyl)piperidine-4-carboxamide], the IC50 was 302 nM.

Regarding `CC(=O)N1CCC(C)(C(=O)N(CC(=O)Nc2ccc3c(c2)C[C@@]2(C3)C(=O)Nc3ncccc32)Cc2ccccc2CN)CC1` [Example 132, (R)-1-Acetyl-N-(2-(aminomethyl)benzyl)-4-methyl-N-(2-oxo-2-((2′-oxo-1,1′,2′,3-tetrahydrospiro[indene-2,3′-pyrrolo[2,3-b]pyridin]-5-yl)amino)ethyl)piperidine-4-carboxamide], the IC50 was 148 nM.

With `CCC1(C(=O)N(CC(=O)Nc2ccc3c(c2)C[C@@]2(C3)C(=O)Nc3ncccc32)Cc2ccccc2CN)CCN(C(C)=O)CC1` [Example 133, (R)-1-Acetyl-N-(2-(aminomethyl)benzyl)-4-ethyl-N-(2-oxo-2-((2′-oxo-1,1′,2′,3-tetrahydrospiro[indene-2,3′-pyrrolo[2,3-b]pyridin]-5-yl)amino)ethyl)piperidine-4-carboxamide], the IC50 was 6.92 nM.

For the compound `CCNCc1ccccc1CN(CC(=O)Nc1ccc2c(c1)C[C@@]1(C2)C(=O)Nc2ncccc21)C(=O)C1(CC)CCN(C(C)=O)CC1` [Example 134, (R)-1-Acetyl-4-ethyl-N-(2-((ethylamino)methyl)benzyl)-N-(2-oxo-2-((2′-oxo-1,1′,2′,3-tetrahydrospiro[indene-2,3′-pyrrolo[2,3-b]pyridin]-5-yl)amino)ethyl)piperidine-4-carboxamide], the IC50 was 115 nM.

`CNCc1ccc(F)cc1CN(CC(=O)Nc1ccc2c(c1)C[C@@]1(C2)C(=O)Nc2ncccc21)C(=O)C1(C)CCNCC1` [Example 135, (R)—N-(5-Fluoro-2-((methylamino)methyl)benzyl)-4-methyl-N-(2-oxo-2-((2′-oxo-1,1′,2′,3-tetrahydrospiro[indene-2,3′-pyrrolo[2,3-b]pyridin]-5-yl)amino)ethyl)piperidine-4-carboxamide]: the IC50 is 55 nM.
